This series in a line: solvent given as SMILES.

For the setting “in C1CCOC1”, `CCCCCCC1(CCCCCC)c2cc(-c3nc(-c4ccc5c(c4)C(CCCCCC)(CCCCCC)c4cc(-n6c7ccc(C(C)(C)C)cc7c7cc(C(C)(C)C)ccc76)ccc4-5)nc(-c4ccc5c(c4)C(CCCCCC)(CCCCCC)c4cc(-n6c7ccc(C(C)(C)C)cc7c7cc(C(C)(C)C)ccc76)ccc4-5)n3)ccc2-c2ccc(-n3c4ccc(C(C)(C)C)cc4c4cc(C(C)(C)C)ccc43)cc21` registered an absorption maximum of 382 nm.
`COc1ccc(N(c2ccc(OC)cc2)c2ccc3c4cccc5c(N(c6ccc(OC)cc6)c6ccc(OC)cc6)ccc(c6cccc2c63)c54)cc1`: the absorption maximum reads like this: (in C1CCCCC1) 519 nm; (in C1CCOC1) 515 nm; (in CC#N) 508 nm; (in Cc1ccccc1) 519 nm; (in ClCCl) 514 nm.
Compound `CC1=CC(C)=[N+]2C1=C(C1=C(C)C3=C(C)c4c(C)cc(C)n4[B-](F)(F)[N+]3=C1C)c1c(C)cc(C)n1[B-]2(F)F` returned an absorption maximum (in ClC(Cl)Cl) of 516 nm.
As to `c1ccc(N(c2ccccc2)c2ccc(-c3nc4c5ccccc5c5ccccc5c4n3-c3ccccc3)cc2)cc1`, the absorption maximum (in ClCCl) turned out to be 400 nm.
Regarding `COc1cc(N2CCOCCOCCN(c3cc(OC)c(NC(=O)c4ccc(-c5c6cc(Cl)c(=O)cc-6oc6cc([O-])c(Cl)cc56)c(C(=O)[O-])c4)cc3OC)CCOCC2)c(OC)cc1NC(=O)c1ccc(-c2c3cc(Cl)c(=O)cc-3oc3cc([O-])c(Cl)cc23)c(C(=O)[O-])c1`, the absorption maximum (in O) is 507 nm.
On to `CCCCc1ccc(C#Cc2ccc3nc4ccc(C#Cc5ccc(CCCC)cc5)cn4c(=O)c3c2)cc1`, for which the absorption maximum (in ClCCl) worked out at 383 nm.
On to `Oc1cc(-c2ccco2)ccc1-c1nc2ccccc2s1`, for which the absorption maximum worked out at 361 nm (in ClCCl) and 354 nm (in O).
Take `Cc1cc(-c2ccc(-c3n(C)c4ccccc4[n+]3C)cc2)ccc1-c1ccc(-c2n(C)c3ccccc3[n+]2C)cc1`: under “in O”, the absorption maximum is reported as 299 nm.
With `CC(C)(C)c1ccc2c(c1)c1cc3c4cc(C(C)(C)C)ccc4c4c5c6ccc(C(C)(C)C)cc6c6cc7c8cc(C(C)(C)C)ccc8c8c2c1c(c34)c(c78)c65`, the absorption maximum by setting is: (in CCCCCC) 542.15 nm; (in CCOCC) 541.57 nm; (in Cc1ccccc1) 545.85 nm.
With `O=C1c2ccccc2C2=Nc3ccc4ccccc4[n+]3[B-](F)(F)N12`, where the note is “in ClCCl”, the absorption maximum amounted to 387 nm.
Same read-out and setting: the figure for `COCCOCCOCCOCC(COCCOCCOCCOC)Oc1cc(/C=C/c2ccc(/C=C/[N+](=O)[O-])cc2)c(OC(COCCOCCOCCOC)COCCOCCOCCOC)cc1/C=C/c1ccc(/C=C/[N+](=O)[O-])cc1` is 447 nm.
The compound `CCCCC1(c2ccccc2)Nc2c(-c3ccc(N(c4ccccc4)c4ccccc4)cc3)ccc(-c3ccc(N(c4ccccc4)c4ccccc4)cc3)c2N=C1c1ccccc1` (stereo unspecified) displayed an absorption maximum (in ClC(Cl)Cl) of 370 nm.
Compound `CCN(CC)c1ccc(/C=C2\CC/C(=C\c3ccc(N(c4ccccc4)c4ccc(/C=C5\CC/C(=C\c6ccc(N(CC)CC)cc6)C5=C(C#N)C#N)cc4)cc3)C2=C(C#N)C#N)cc1` displayed an absorption maximum (in CN(C)C=O) of 592 nm.
For the setting “in CCO”, `CCOC(=O)/C=C/c1cc2ccc(O)cc2oc1=O` came in with an absorption maximum of 367 nm.
For the compound `Nc1ccc2c3c(cccc13)C(=O)c1ccccc1-2`, the absorption maximum (in CO) is given as 514.14 nm.
For `CCCCCC(=O)c1c2c(c(C(=O)CCCCC)c3c1OC1(CCCC1)O3)OC1(CCCC1)O2`, the absorption maximum runs as follows: (in CC#N) 444 nm; (in CCCCCC) 435 nm; (in CCO) 452 nm; (in CO) 452 nm; (in ClCCl) 449 nm.
Regarding `N#Cc1cc(C#N)c(-n2c3ccccc3c3ccccc32)cc1-n1c2ccccc2c2ccccc21`, the absorption maximum (in Cc1ccccc1) was determined as 374 nm.
Compound `c1cc2c3c(cccc3c1)-c1c-2c2c3ccccc3c3ccc4c5c6c(c7c8ccccc8c8ccc9c%10c%11c(c%12c%13ccccc%13c%13ccc%14c1c1c2c3c4c2c1c1c%14c%13c%12c%10c1c1c9c8c7c5c21)-c1cccc2cccc-%11c12)-c1cccc2cccc-6c12` had an absorption maximum (in C1CCOC1) of 475 nm.
For the compound `CC(C)=NO`, the absorption maximum (in CCO) came out at 193 nm.
Consider `Cn1c(=O)c(/N=N/c2ccc(/N=N/c3ccc(S(=O)(=O)O)cc3)cc2)c(O)c2ccccc21`, for which the absorption maximum is, setting by setting: (in C1CCOC1) 454 nm; (in CC(C)=O) 453 nm; (in CCOC(C)=O) 452 nm; (in CO) 452 nm; (in CS(C)=O) 460 nm; (in Cc1ccccc1) 458 nm. For the same compound, the absorption maximum runs as follows: (in ClCCl) 457 nm; (in O) 447 nm.
Take `O=C1CC(=O)Nc2cc(C(=O)O)ccc2N1`: under “in CS(C)=O”, the absorption maximum amounted to 304 nm.
Consider `Nc1nc(/C=C/c2ccc(N(c3ccccc3)c3ccccc3)cc2)cc(/C=C/c2ccc(N(c3ccccc3)c3ccccc3)cc2)n1`, for which the absorption maximum reads like this: (in Cc1ccccc1) 417 nm; (in ClC(Cl)Cl) 432 nm.
Compound `COc1cc(/C=C/c2ncc(-c3ccncc3)o2)cc(OC)c1OC` gave an absorption maximum (in ClCCl) of 352 nm.
As to `N#C/C(=C\c1ccncc1)c1nc(-c2ccccc2)cs1`, the absorption maximum was found to be 361 nm (in CC#N); 370 nm (in CCO); 368 nm (in CN(C)C=O); 371 nm (in CS(C)=O); 372 nm (in Cc1ccccc1); 418 nm (in ClCCl).
With `CC(C)[Si](C#Cc1ccc(C#C[Si](C(C)C)(C(C)C)C(C)C)c2nc3ccccc3nc12)(C(C)C)C(C)C`, the absorption maximum reads like this: (in CCCCCC) 440 nm; (in ClCCl) 439 nm.
Take `N#Cc1nc2c(nc1C#N)C1c3ccc(N(c4ccccc4)c4ccccc4)cc3C2c2ccc(N(c3ccccc3)c3ccccc3)cc21`: the absorption maximum (in C1CCCCC1) is given as 408 nm, the absorption maximum (in CC#N) amounted to 378 nm, the absorption maximum (in Cc1ccccc1) was found to be 391 nm and the absorption maximum (in ClCCl) was found to be 409 nm.
In turn, `COc1ccc(N(c2ccc(OC)cc2)c2ccc(-c3ccc4nc5ccccc5c(=O)n4c3)cc2)cc1` gave an absorption maximum (in ClCCl) of 361 nm.
The compound `CN(C)c1ccc2ccc3oc(=O)c(-c4ccccc4)nc3c2c1` registered an absorption maximum (in c1ccccc1) of 474 nm.
`CN(C)c1ccc(-c2nc3cccnc3[nH]2)cc1`: the absorption maximum is, setting by setting: (in C1CCCCC1) 351 nm; (in CC#N) 346 nm.
With `CCCCN1C(=O)c2cccc3cc(C#CC#Cc4cc5c6c(cccc6c4)C(=O)N(CCCC)C5=O)cc(c23)C1=O`, where the note is “in ClCCl”, the absorption maximum was found to be 314 nm.
Regarding `CCCCCCCCCCCCN1C(=O)c2cccc3c(N(Cc4ccccn4)Cc4ccccn4)c4ccccc4c(c23)C1=O`, the absorption maximum (in C1CCOC1) turned out to be 497 nm; the absorption maximum (in CCCCCC) came to 480 nm; the absorption maximum (in CCO) is 488 nm; the absorption maximum (in Cc1ccccc1) worked out at 492 nm; the absorption maximum (in ClCCl) was 500 nm.
Compound `Cn1c(=O)c(-c2ccccc2)nc2ccccc21` had an absorption maximum (in c1ccccc1) of 369 nm.
Regarding `N#Cc1cc2ccc(O)cc2oc1=N`, the absorption maximum stood at 360 nm (in C1CCOC1); 356 nm (in CC#N); 362 nm (in CCOC(C)=O); 355 nm (in CS(C)=O); 364 nm (in ClC(Cl)Cl).
The compound `CC(C)[Si](C#Cc1c2nsnc2c(C#C[Si](C(C)C)(C(C)C)C(C)C)c2nc3c(ccc4cc5ccccc5cc43)nc12)(C(C)C)C(C)C` registered an absorption maximum (in CCCCCC) of 579 nm.

Values taken from the Deep4Chem optical property database.
